# Test results: patent US10414721B1, “Inhibitor of endocannabinoid cellular reuptake” (University of Bern, priority 2018, dated 2019)
# Test system: CB1 receptors
# Experiment: Functional CB1 receptors in brain after repeated treatment
# Format: in vivo, mouse
# Details: 7 days of daily treatment
# Protocol: CB1 and CB2 receptor binding assays [^35S]GTPγS assays were performed as previously described. WOBE437 was profiled in more detail in an extended CNS adverse drug reaction screening panel (CEREP).
smiles,measurement,value
"CCCCCCC/C=C/C=C/C(=O)NCCc1ccc(OC)c(OC)c1 [WOBE437, (2E,4E)-N-[2-(3,4-Dimethoxyphenyl)ethyl]dodeca-2,4-dienamide]",number of functional CB1 receptors in the brain,did not affect
